Data on 6 compounds can be found in article PMC7594025, “Synthesis, Docking, 3-D-Qsar, and Biological Assays of Novel Indole Derivatives Targeting Serotonin Transporter, Dopamine D2 Receptor, and Mao-A Enzyme: In the Pursuit for Potential Multitarget Directed Ligands” (Molecules, 2020).

What is called Ki is a measure of affinity in units of concentration, obtained from inhibition or displacement. By melting point is commonly meant the temperature, or range, at which the solid turns liquid. In general, inhibition refers to the relative decrease from the control value, in per cent. Lower therefore signals a response near the control.

One data set has as its target T1, SERT (Homo sapiens, UniProt P31645).
T1 construct: purchased Perkin-Elmer (Boston, MA, USA) RBHSTM400UA; host or cells: HEK-293 clonal cell line
Description: SERT competitive binding assay, [3H]-paroxetine, membranes from HEK-293 clonal cell line overexpressing SERT. The note with it: 2 nM [3H]-paroxetine, 1 h at 27 °C; mean ± SEM of three experiments, each in triplicate; read-out: Ki SERT. On the procedure: To determine the binding of all compounds at SERT, competitive binding assays were performed according to previously reported procedures with some modifications. […] Control curve was performed with fluoxetine in the same experimental conditions. Non-specific binding was determined with 10 µM fluoxetine.
The IC50 and Ki values correspond to the results of three independent experiments, each in triplicate. All data are expressed as the mean ± SEM.

The target of another data set is T2, D2 receptor (Homo sapiens, UniProt P14416).
T2 construct: purchased Perkin-Elmer (Boston, MA, USA) RBHD2CM400UA; host or cells: CHO-K1 clonal cell line
T2 sequence (P14416 whole entry): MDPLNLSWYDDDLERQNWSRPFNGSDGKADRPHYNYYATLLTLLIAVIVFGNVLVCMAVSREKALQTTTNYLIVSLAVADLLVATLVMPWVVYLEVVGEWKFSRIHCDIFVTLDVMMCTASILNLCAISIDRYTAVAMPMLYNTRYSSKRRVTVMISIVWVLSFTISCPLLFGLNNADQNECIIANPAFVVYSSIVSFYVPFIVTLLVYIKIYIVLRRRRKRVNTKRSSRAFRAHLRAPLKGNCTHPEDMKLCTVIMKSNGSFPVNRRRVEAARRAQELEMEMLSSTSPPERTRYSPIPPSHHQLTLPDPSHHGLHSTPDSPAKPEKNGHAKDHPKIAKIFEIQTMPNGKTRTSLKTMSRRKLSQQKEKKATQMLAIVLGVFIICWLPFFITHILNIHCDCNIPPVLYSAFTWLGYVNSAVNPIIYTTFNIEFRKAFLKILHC
Description: D2 receptor competitive binding assay, [3H]-methylspiperone, membranes from CHO-K1 clonal cell line overexpressing D2 receptor. The note with it: 0.5 nM [3H]-methylspiperone, 2 h at 27 °C; mean ± SEM of three experiments, each in triplicate. On the procedure:
To determine the binding of all compounds at D2 receptor, competitive binding assays were performed according to provider indications with some modifications. […] Radioactivity was counted as described before.

The target in a further data set is T3, rat MAO-A (Rattus norvegicus, UniProt P21396).
T3 construct: using a crude rat brain mitochondrial suspension as a source of enzyme; from tissue; host or cells: rat brain (crude mitochondrial suspension)
T3 sequence (P21396 1-526): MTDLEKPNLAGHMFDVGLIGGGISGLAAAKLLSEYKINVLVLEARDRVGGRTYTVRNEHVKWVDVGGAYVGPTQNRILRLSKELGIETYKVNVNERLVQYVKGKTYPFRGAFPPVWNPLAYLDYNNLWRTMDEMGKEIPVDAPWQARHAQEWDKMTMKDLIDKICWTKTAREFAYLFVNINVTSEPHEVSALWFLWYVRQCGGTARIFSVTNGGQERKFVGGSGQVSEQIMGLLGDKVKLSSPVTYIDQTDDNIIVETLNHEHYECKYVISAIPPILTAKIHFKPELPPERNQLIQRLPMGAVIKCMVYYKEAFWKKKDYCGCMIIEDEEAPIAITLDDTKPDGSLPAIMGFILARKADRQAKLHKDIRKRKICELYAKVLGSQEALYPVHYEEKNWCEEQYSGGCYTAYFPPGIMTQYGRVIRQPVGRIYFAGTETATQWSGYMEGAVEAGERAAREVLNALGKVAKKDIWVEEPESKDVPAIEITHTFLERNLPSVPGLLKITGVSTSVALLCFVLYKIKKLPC
The experiment in a line: MAO-A inhibition, crude rat brain mitochondrial suspension, serotonin substrate, HPLC-ED. Type of data set: biochemical. The note with it: 100 µM compound; serotonin 100 µM as substrate. Here is the method:
The effects of the compounds on rat MAO-A activity were studied following a previously reported methodology, using a crude rat brain mitochondrial suspension as a source of enzyme. Serotonin (100 µM) was used as the selective substrate for MAO-A. This compound and its metabolite were detected by HPLC with electrochemical detection. As an exploratory evaluation, the percentage of MAO-A inhibition in the presence of 100 µM of the different compounds was determined, with the idea of evaluating in detail those compounds showing an inhibitory activity in the range of 70–100%.

T1 sequence (P31645 whole entry): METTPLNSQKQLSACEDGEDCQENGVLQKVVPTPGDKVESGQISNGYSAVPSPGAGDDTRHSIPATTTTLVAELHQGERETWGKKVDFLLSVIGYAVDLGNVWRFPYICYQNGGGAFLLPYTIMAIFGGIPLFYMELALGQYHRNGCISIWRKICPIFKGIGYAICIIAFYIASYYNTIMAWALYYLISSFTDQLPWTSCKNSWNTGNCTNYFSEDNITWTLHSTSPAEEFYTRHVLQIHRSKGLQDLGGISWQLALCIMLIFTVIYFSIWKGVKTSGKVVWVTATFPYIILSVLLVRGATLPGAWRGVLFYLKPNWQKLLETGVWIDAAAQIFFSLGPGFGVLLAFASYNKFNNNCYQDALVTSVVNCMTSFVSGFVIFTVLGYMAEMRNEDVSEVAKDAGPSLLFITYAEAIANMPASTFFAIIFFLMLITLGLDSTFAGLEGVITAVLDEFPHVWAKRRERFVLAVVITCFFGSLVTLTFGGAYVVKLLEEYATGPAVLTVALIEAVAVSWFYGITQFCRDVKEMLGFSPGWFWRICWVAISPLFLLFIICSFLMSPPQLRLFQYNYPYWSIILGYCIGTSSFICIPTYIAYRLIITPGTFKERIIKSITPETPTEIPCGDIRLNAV

In turn, `COc1ccc2c(c1)N(C(=O)CN1CCN(CCCc3c[nH]c4ccc(F)cc34)CC1)CCO2` [Compound 7l, 1-(6-Methoxy-2,3-dihydro-benzo[b][1,4]oxazin-4-yl)-2-{4-[3-(5-fluoro-1H-3-indolyl)-propyl]-1-piperazinyl} ethanamide] gave a melting point of 94.5 to 97.3 °C. In addition, the Ki on SERT was 12.6 ± 1.52 nM. Further, at D2 receptor, the Ki turned out to be 3320 ± 256 nM. This compound returned an inhibition at 100 µM against rat MAO-A of 52%.
For `COc1ccc2c(c1)N(C(=O)CN1CCN(CCCc3c[nH]c4ccccc34)CC1)CCO2` [Compound 7f, 1-(6-Methoxy-2,3-dihydro-benzo[b][1,4]oxazin-4-yl)-2-{4-[3-(1H-3-indolyl)-propyl]-1-piperazinyl} ethanamide] the same measures were 123.6 to 125.1 °C, 412 ± 57.9 nM, 4410 ± 647 nM and 58%.
The corresponding values for `O=C(CN1CCN(CCCc2c[nH]c3ccc(F)cc23)CC1)Nc1cc(C(=O)NCCN2CCOCC2)ccc1F` [Compound 13b, 4-Fluoro-3-(2-{4-[3-(5-fluor-1H-3-indolyl)-propyl]-1-piperazinyl}-acetylamino)-N-(2-morpholin-4-yl-ethyl) Benzamide] are 92.2 to 93.9 °C, 23.8 ± 0.46 nM, 3100 ± 42 nM and 42%.
Compound `O=C(CN1CCN(CCCc2c[nH]c3ccccc23)CC1)N1CCOc2ccccc21` [Compound 7a, 1-(2,3-Dihydro-benzo[b][1,4]oxazin-4-yl)-2-{4-[3-(1H-3-indolyl)-propyl]-1-piperazinyl} ethanamide] had a melting point of 124.3 to 125.8 °C. Also, the Ki at SERT stood at 307 ± 30.5 nM. For the same compound, on D2 receptor, the inhibitory constant (Ki) is 4840 ± 68 nM. Moreover, the inhibition at 100 µM on rat MAO-A was 27%.
On to `O=C(CN1CCN(CCCc2c[nH]c3ccc(Br)cc23)CC1)Nc1cc(C(=O)NCCN2CCOCC2)ccc1F` [Compound 13f, 4-Fluoro-3-(2-{4-[3-(5-bromo-1H-3-indolyl)-propyl]-1-piperazinyl}-acetylamino)-N-(2-morpholin-4-yl-ethyl) Benzamide], for which the melting point lay in the range of 85.2 to 86.8 °C. The Ki at SERT was 58.8 ± 1.14 nM. In addition, the Ki on D2 receptor came to 1830 ± 33 nM. Besides, 100 µM produced 39% inhibition on rat MAO-A.
The corresponding values for `O=C(CN1CCN(CCCc2c[nH]c3ccc(Br)cc23)CC1)Nc1cc(F)ccc1C(=O)NCCN1CCOCC1` [Compound 13e, 4-Fluoro-2-(2-{4-[3-(5-bromo-1H-3-indolyl)-propyl]-1-piperazinyl}-acetylamino)-N-(2-morpholin-4-yl-ethyl) Benzamide] are 92.1 to 93.8 °C, 223 ± 16.4 nM, 5619 ± 31 nM and 39%.
